Data on three molecules can be found in patent US20230357162A1, “COMPOUNDS, COMPOSITIONS AND METHODS” (Denali Therapeutics Inc., priority 2020, published 2023).

The term IC50 denotes the midpoint of a concentration-inhibition curve.

The assay has as its system IL-1β secretion, THP-1 cells. The experiment in a line: IL-1β secretion assay in PMA-differentiated THP-1 cells stimulated with LPS and nigericin (ELISA readout). The assay is classed as cell-based. Conditions: Homo sapiens, THP-1, inhibition of IL-1β secretion, 25 ng/mL LPS then nigericin. The procedure, abridged:
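THP-1 cells differentiated with 5 ng/mL PMA for 40 h, primed in serum-free medium with 25 ng/mL LPS for 2 h, then compound (0.5% DMSO) for 1 h before nigericin for 2 h at 37°C. Supernatant IL-1β quantified by ELISA; normalized to high (LPS + 5 µM nigericin) and low (LPS only) controls.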
A general note: ELISA stands for enzyme-linked immunosorbent assay.

On to `CCN1CCCC(NC(=O)Cn2nc(C(F)F)c3c(F)c(Br)ccc3c2=O)C1` (stereo not drawn) [Example 183, 2-[6-bromo-4-(difluoromethyl)-5-fluoro-1-oxophthalazin-2-yl]-N-(1-ethylpiperidin-3-yl)acetamide], for which the IC50 by setting is: (class column of Table 3) less than 10000 nM; (numeric column of Table 3) 485 nM.
Regarding `O=C(Cn1nc(C(F)F)c2c(F)c(C3CC3)ccc2c1=O)Nc1ncc(F)cn1` [Example 184, 2-[6-cyclopropyl-4-(difluoromethyl)-5-fluoro-1-oxophthalazin-2-yl]-N-(5-fluoropyrimidin-2-yl)acetamide], the half-inhibitory concentration (IC50) is, setting by setting: (class column of Table 3) less than 10000 nM; (numeric column of Table 3) 179 nM.
The matching figures for `O=C(Cn1nc(C(F)F)c2c(F)c(C3CCC3)ccc2c1=O)Nc1ncc(F)cn1` [Example 185, 2-[6-cyclobutyl-4-(difluoromethyl)-5-fluoro-1-oxophthalazin-2-yl]-N-(5-fluoropyrimidin-2-yl)acetamide]: less than 10000 nM and 2090 nM.
